Measurements reported in patent publication US3963735A, “Acylated 2-aminothiazole derivatives” (Egyt Gyogyszervegyeszeti Gyar, priority 1973, dated 1976).
Where a name gives a salt, the structure may show the parent alone. Read-outs that look alike come from different tables or passages of the source.

What was measured:
gastric acid secretion = assay: inhibition of gastric juice secretion, method of H. Shay et al.; type: in vivo; details: po; rat
Experimental: (§1) All experiments were carried out on rats.

Shay ulcer = assay: Shay ulcer-inhibiting effect, method of H. Shay et al.; type: in vivo; details: po, rat
Experimental: as §1

acute toxicity = details: in vivo, rat
Experimental: as §1

ileum = details: rat
Experimental: (§2) The effects of the new compounds exerted on the gastric acid secretion and Shay ulcer was examined according to the method of H. Shay et al. (Gastroenterology 5, 43/1945/), while their inhibition effect exerted on immobilisation and insuline ulcer was tested according to the method of Borsi et al. (Acta Pharm. Hung. 38, 151 /1968/). […] All experiments were carried out on rats. As reference substance, methantheline (diethyl-/2-hydroxyethyl/-methylammonium bromide xanthene-9-carboxylate) was used.

in vivo = details: rat
Experimental: as §2

immobilisation ulcer = immobilisation ulcer inhibition, method of Borsi et al.; type: in vivo; details: po, rat, p.o., read-out: Ulcer-inhibiting effect ED50, immob.
Experimental: as §1

insuline ulcer = assay: insulin ulcer inhibition, method of Borsi et al.; type: in vivo; details: po, rat, p.o., read-out: Ulcer-inhibiting effect ED50, insulin
Experimental: as §1

[1] = ip, i.p., read-out: Acute toxicity LD50, i.p.
[2] = po, p.o., read-out: Acute toxicity LD50, p.o.

SMILES | ED50 (gastric acid secretion) [mg/kg] | ED50 (Shay ulcer) [mg/kg] | LD50 (acute toxicity; [1]) [mg/kg] | LD50 (acute toxicity; [2]) [mg/kg] | Anticholinergic effect, ED50, ileum (ileum) | ED50 (in vivo) [mg/kg] | ED50 (immobilisation ulcer) [mg/kg] | ED50 (insuline ulcer) [mg/kg]
O=C(CN1CCCCCCC1)Nc1nc(-c2cccnc2)cs1 [Example 19, 2-(Heptamethyleneimino-acetamido)-4-(3'-pyridyl)-thiazole] | > 40 | > 40 | > 1000 | > 2000 | > 1 gamma | > 100 |  | 
O=C(CN1CCCCC1)Nc1nc(-c2cccnc2)cs1 [Example 17, 2-(Pentamethyleneimino-acetamido)-4-(3'-pyridyl)-thiazole] | > 40 | > 40 | 650 | 1300 | > 1 gamma | > 100 | > 40 | > 40
CCCCCCCCNCC(=O)Nc1nc(-c2cccnc2)cs1 [Example 28, 2-(n-Octylamino-acetamido)-4-(3'-pyridyl)-thiazole dihydrochloride] | 40 | > 40 | 200 | 800 | > 1 gamma | > 100 |  | 
CC[N+](C)(CC)CCOC(=O)C1c2ccccc2Oc2ccccc21 [Methantheline, diethyl-/2-hydroxyethyl/-methylammonium bromide xanthene-9-carboxylate, reference compound] | 20 | 15.2 | 76 | 320 | 3×10^-^5 gamma | 17 | 20.7 | 11.5
O=C(CNc1ccccc1)Nc1nc(-c2cccnc2)cs1 [Example 16, 2-(Phenylamino-acetamido)-4-(3'-pyridyl)-thiazole] | > 40 | > 40 | > 1000 | > 2000 | > 1 gamma | > 100 | > 40 | > 40
Cc1sc(NC(=O)CNCCO)nc1-c1cccnc1 [Example 32, 2-(2'-hydroxyethylamino-acetamido)-4-(3"-pyridyl)-5-methyl-thiazole] | 35 | > 40 | 400 | > 1500 | > 1 gamma | > 100 | > 40 | > 40
CCCCCCNCC(=O)Nc1nc(-c2cccnc2)cs1 [Example 27, 2-(n-Hexylamino-acetamido)-4-(3'-pyridyl)-thiazole dihydrochloride] | 30 | 50 | 300 | 450 | > 1 gamma | > 100 | 25 | 20
O=C(CNCc1ccccc1)Nc1nc(-c2cccnc2)cs1 [Example 8, 2-(Benzylamino-acetamido)-4-(3'-pyridyl)-thiazole] | 20 | > 40 | > 1000 | 1000 | > 1 gamma | > 100 |  | 
CCN(CC)CC(=O)Nc1nc(-c2cccnc2)cs1 [Example 5, 2-(Diethylamino-acetamido)-4-(3'-pyridyl)-thiazole] | 40 | > 40 | 460 | 1400 | > 1 gamma | > 100 | 40 | > 40
Cc1sc(NC(=O)CNC2CC2)nc1-c1cccnc1 [Example 31, 2-cyclopropylamino-acetamido-4-(3'-pyridyl)-5-methyl-thiazole dihydrochloride] | 19 | 50 | 500 | 1000 | > 1 gamma | > 100 | 30 | 20
CC(C)CNCC(=O)Nc1nc(-c2cccnc2)cs1 [Example 24, 2-(Isobutylamino-acetamido)-4-(3'-pyridyl)-thiazole dihydrochloride] | 23 | > 40 | 200 | 350 | > 1 gamma | > 100 | > 40 | 20
CCNCC(=O)Nc1nc(-c2cccnc2)cs1 [Example 4, 2-(Ethylamino-acetamido)-4-(3'-pyridyl)-thiazole] | 16 | > 40 | 240 | 550 | > 1 gamma | > 100 | 40 | 12
O=C(CNC1CC1)Nc1nc(-c2ccncc2)cs1 [Example 33, 2-cyclopropylamino-acetamido-4-(4'-pyridyl)-thiazole dihydrochloride] | 20 |  | 600 | 900 | > 1 gamma | > 100 |  | 
O=C(CNC1CC1)Nc1nc(-c2cccnc2)cs1 [Example 2, 2-cyclopropylamino-acetamido-4-(3'-pyridyl)-thiazole] | 8 | 40 | 310 | 420 | > 1 gamma | > 100 | 27 | 6
O=C(CN1CCOCC1)Nc1nc(-c2cccnc2)cs1 [Example 18, 2-(4'-Morpholino-acetamido)-4-(3"-pyridyl)-thiazole] | > 40 | > 40 | > 1000 | 1300 | > 1 gamma | > 100 |  | 
